In brackets after ≈: the same amount, converted by molar mass. Activity calls are given as the source filed them. No cut-off for these calls is given here. Starred links: 1 amine or outer side, 2 acyl side, 3 side chain; linkers in the order of their positions; H or OH if unused. Positions of bridges follow the written chain, without caps; N, C: chain ends. Non-standard residues stand in square brackets, D forms with d. Residues, ends and D or L forms follow the SMILES beside them. X1 = O=C([C@H](CCCCNCC=[*:3])N[*:1])[*:2]
Assays:
Staphylococcus aureus [1] = assay: Antibacterial activity against methicillin-resistant Staphylococcus aureus assessed as inhibition of bacterial growth incubated for 16 hrs by broth microdilution method; format: functional
Staphylococcus aureus [2] = assay: Antibacterial activity against methicillin-resistant Staphylococcus aureus BNCC 186335 assessed as inhibition of bacterial growth incubated for 4 hrs in presence of 25% plasma by broth microdilution method; format: functional
Pseudomonas aeruginosa [3] = assay: Antibacterial activity against Pseudomonas aeruginosa BNCC 125486 assessed as inhibition of bacterial growth incubated for 16 hrs by broth microdilution method; format: functional
Staphylococcus aureus [4] = assay: Antibacterial activity against Staphylococcus aureus BNCC 186335 assessed as inhibition of bacterial growth incubated for 16 hrs by broth microdilution method; format: functional
Erythrocyte = assay: Hemolytic activity against human RBC assessed as concentration required to cause 10% hemolysis; format: toxicity, cell-based
Escherichia coli [5] = assay: Antibacterial activity against cephalosporin-resistant Escherichia coli BNCC 133264 assessed as inhibition of bacterial growth incubated for 16 hrs by broth microdilution method; format: functional
HEK-293T [6] = assay: Cytotoxicity against human HEK293T cells assessed as cell survival rate at 256 ug/ml incubated for 24 hrs by MTT assay; format: toxicity, cell-based; conditions: dose 256 µg/ml
Escherichia coli [7] = assay: Antibacterial activity against Escherichia coli BNCC 133264 assessed as inhibition of bacterial growth incubated for 16 hrs by broth microdilution method; format: functional
Listeria monocytogenes = assay: Antibacterial activity against Listeria monocytogenes assessed as inhibition of bacterial growth incubated for 16 hrs by broth microdilution method; format: functional
HEK-293T [8] = assay: Cytotoxicity against human HEK293T cells assessed as cell survival rate at 64 Ug/ml incubated for 24 hrs by MTT assay relative to control; format: toxicity, cell-based; conditions: dose 64 µg/ml
HEK-293T [9] = assay: Cytotoxicity against human HEK293T cells assessed as cell survival rate at 128 ug/ml incubated for 24 hrs by MTT assay relative to control; format: toxicity, cell-based; conditions: dose 128 µg/ml
Escherichia coli [10] = assay: Antibacterial activity against multidrug-resistant Escherichia coli BNCC 133264 assessed as inhibition of bacterial growth incubated for 16 hrs by broth microdilution method; format: functional
[11] = Stability in human plasma assessed as half life measured after 24 hrs by HPLC analysis; format: ADME, cell-free
Cell membrane [12] = assay: Induction of membrane damage in multidrug-resistant Acinetobacter baumannii assessed as concentration of stained cells incubated for 2 hrs by propidium iodide staining based flow cytometer assay; format: subcellular; conditions: dose 16.0 µg/ml
Staphylococcus aureus [13] = assay: Drug resistance development in Staphylococcus aureus assessed as change in MIC at sub-MIC concentration measured after 60 passages; format: functional, organism-based
Klebsiella pneumoniae = assay: Antibacterial activity against multidrug-resistant Klebsiella pneumoniae assessed as inhibition of bacterial growth incubated for 16 hrs by broth microdilution method; format: functional
Enterococcus faecium = assay: Antibacterial activity against multidrug-resistant Enterococcus faecium assessed as inhibition of bacterial growth incubated for 16 hrs by broth microdilution method; format: functional
Staphylococcus aureus [14] = assay: Bactericidal activity against methicillin-resistant Staphylococcus aureus BNCC 186335 assessed as log reduction in colony forming unit at 32 ug/ml measured after 30 mins by time kill assay; format: functional, organism-based; conditions: dose 32.0 µg/ml
Cell membrane [15] = assay: Induction of membrane damage in methicillin-resistant Staphylococcus aureus BNCC 186335 assessed as disruption of membrane integrity at 16 ug/ml incubated for 2 hrs by propidium iodide staining based assay; conditions: dose 16.0 µg/ml
Acinetobacter baumannii [16] = assay: Bactericidal activity against multidrug-resistant Acinetobacter baumannii assessed as log reduction in colony forming unit at 32 ug/ml measured after 20 mins by time kill assay; format: functional, organism-based; conditions: dose 32.0 µg/ml
Cell membrane [17] = assay: Induction of membrane disruption in methicillin-resistant Staphylococcus aureus BNCC 186335 assessed as loss of cell integrity at 16 ug/ml measured after 2 hrs by SEM analysis; format: subcellular; conditions: dose 16.0 µg/ml
Cell membrane [18] = assay: Induction of membrane disruption in multidrug-resistant Acinetobacter baumannii assessed as loss of cell integrity at 16 ug/ml measured after 2 hrs by SEM analysis; format: subcellular; conditions: dose 16.0 µg/ml
Pseudomonas aeruginosa [19] = assay: Antibacterial activity against multidrug-resistant Pseudomonas aeruginosa BNCC 125486 assessed as inhibition of bacterial growth incubated for 16 hrs by broth microdilution method; format: functional
Staphylococcus aureus [20] = assay: Antibacterial activity against multidrug-resistant Staphylococcus aureus BNCC 186335 assessed as inhibition of bacterial growth incubated for 16 hrs by broth microdilution method; format: functional
Acinetobacter baumannii [21] = assay: Antibacterial activity against multidrug-resistant Acinetobacter baumannii assessed as inhibition of bacterial growth incubated for 16 hrs by broth microdilution method; format: functional
Cell membrane [22] = assay: Induction of membrane damage in methicillin-resistant Staphylococcus aureus BNCC 186335 assessed as concentration of stained cells incubated for 2 hrs by propidium iodide staining based flow cytometer assay; format: subcellular; conditions: DDE = dose-dependent effect

Compound | MIC (Staphylococcus aureus [1]) [µg/mL] | MIC (Staphylococcus aureus [2]) [µg/mL] | MIC (Pseudomonas aeruginosa [3]) [µg/mL] | MIC (Staphylococcus aureus [4]) [µg/mL] | MHC (Erythrocyte) [µg/mL] | MIC (Escherichia coli [5]) [µg/mL] | Activity (HEK-293T [6]) | MIC (Escherichia coli [7]) [µg/mL] | MIC (Listeria monocytogenes) [µg/mL] | Activity (HEK-293T [9]) | other results
CC(C)[C@H](N)C(=O)N[C@H]1CCCCNC/C=C/CNCCCC[C@@H](C(=O)N[C@@H](Cc2ccccc2)C(=O)N[C@@H](Cc2ccccc2)C(=O)N[C@@H](CCCNC(=N)N)C(=O)N[C@@H](CCCCN)C(=O)N[C@@H](Cc2ccccc2)C(=O)N[C@@H](CCCCN)C(=O)N[C@@H](CCCCN)C(=O)N[C@@H](Cc2ccccc2)C(=O)N[C@H](C(N)=O)C(C)C)NC(=O)[C@H](CCCCN)NC(=O)[C@H](Cc2ccccc2)NC(=O)[C@H](CCCNC(=N)N)NC1=O (H-V[X1]RFK[X1]FFRKFKKFV-NH2; staple (E) 2-6) | 4 (≈ 1.92 µM) | 128 | 8 (≈ 3.84 µM) | 2 (≈ 0.959 µM) | > 128 | 16 (≈ 7.68 µM) | Toxic | 4 (≈ 1.92 µM) | 16 (≈ 7.68 µM) |  | Activity (HEK-293T [8]): Toxic
CC(C)[C@H](N)C(=O)N[C@H]1CCCCNCc2ccccc2CNCCCC[C@@H](C(=O)N[C@@H](Cc2ccccc2)C(=O)N[C@@H](Cc2ccccc2)C(=O)N[C@@H](CCCNC(=N)N)C(=O)N[C@@H](CCCCN)C(=O)N[C@@H](Cc2ccccc2)C(=O)N[C@@H](CCCCN)C(=O)N[C@@H](CCCCN)C(=O)N[C@@H](Cc2ccccc2)C(=O)N[C@H](C(N)=O)C(C)C)NC(=O)[C@H](CCCCN)NC(=O)[C@H](Cc2ccccc2)NC(=O)[C@H](CCCNC(=N)N)NC1=O | 8 (≈ 3.75 µM) | 128 | 16 (≈ 7.5 µM) | 4 (≈ 1.87 µM) | > 128 | 16 (≈ 7.5 µM) | Toxic | 8 (≈ 3.75 µM) | 16 (≈ 7.5 µM) | Non-Toxic | 
CC(C)[C@H](N)C(=O)N[C@@H](CCCCN)C(=O)N[C@@H](CCCNC(=N)N)C(=O)N[C@@H](Cc1ccccc1)C(=O)N[C@@H](CCCCN)C(=O)N[C@H]1CCCCNCc2ccccc2CNCCCC[C@@H](C(=O)N[C@@H](Cc2ccccc2)C(=O)N[C@@H](CCCCN)C(=O)N[C@@H](CCCCN)C(=O)N[C@@H](Cc2ccccc2)C(=O)N[C@H](C(N)=O)C(C)C)NC(=O)[C@H](CCCNC(=N)N)NC(=O)[C@H](Cc2ccccc2)NC(=O)[C@H](Cc2ccccc2)NC1=O | 2 (≈ 0.937 µM) | 8 | 8 (≈ 3.75 µM) | 2 (≈ 0.937 µM) | 32 | 8 (≈ 3.75 µM) | Toxic | 4 (≈ 1.87 µM) | 4 (≈ 1.87 µM) | Toxic | MIC (Escherichia coli [10]): 4 µg/mL (≈ 1.87 µM); half-life [11]: 16 h; Activity (Cell membrane [12]): 27%; Activity (Staphylococcus aureus [13]): Active; MIC (Klebsiella pneumoniae): 16 µg/mL (≈ 7.5 µM); MIC (Enterococcus faecium): 2 µg/mL (≈ 0.937 µM); Activity (Staphylococcus aureus [14]): Active; Activity (Cell membrane [15]): Active; Activity (Acinetobacter baumannii [16]): Active; Activity (Cell membrane [17]): Active; Activity (Cell membrane [18]): Active; MIC (Pseudomonas aeruginosa [19]): 8 µg/mL (≈ 3.75 µM); MIC (Staphylococcus aureus [20]): 4 µg/mL (≈ 1.87 µM); MIC (Acinetobacter baumannii [21]): 2 µg/mL (≈ 0.937 µM); Activity (Cell membrane [22]): Dde
CC(C)[C@H](N)C(=O)N[C@@H](CCCCN)C(=O)N[C@@H](CCCNC(=N)N)C(=O)N[C@@H](Cc1ccccc1)C(=O)N[C@@H](CCCCN)C(=O)N[C@H]1CCCCNCC#CCNCCCC[C@@H](C(=O)N[C@@H](Cc2ccccc2)C(=O)N[C@@H](CCCCN)C(=O)N[C@@H](CCCCN)C(=O)N[C@@H](Cc2ccccc2)C(=O)N[C@H](C(N)=O)C(C)C)NC(=O)[C@H](CCCNC(=N)N)NC(=O)[C@H](Cc2ccccc2)NC(=O)[C@H](Cc2ccccc2)NC1=O | 4 (≈ 1.92 µM) | 8 | 16 (≈ 7.68 µM) | 2 (≈ 0.96 µM) | > 128 | 16 (≈ 7.68 µM) | Toxic | 2 (≈ 0.96 µM) | 2 (≈ 0.96 µM) |  | 
